These results are taken from patent US5434136A, “Treatment of motility disorders with a GNRH analog” (priority 1992, dated 1995).

SMILES strings stand for the structures.

One experiment relates to irritable bowel syndrome. To be noted: patient, three months. As for the experimental part: The patient, a patient suffering from irritable bowel syndrome presented symptoms of nausea, vomiting, abdominal pain, and altered bowel habits. This patient was treated with lupron, 2.0 mg/day by subcutaneous injection, for a period of six months. […] Nafarelin is a GnRH analog available from SYNTEX, which differs from the natural GnRH peptide in a D-Nal (2)^6 substitution. […] Nafarelin therapy was discontinued, and treatment with Danazol, a 17-ethyltestosterone derivative known to antagonize GnRH receptors at the level of the pituitary, was begun, at 200 mg four times daily, P.O., for a period of three months.

Experiment [1] has as its system diseases of the autonomic nervous system. To be noted: cited from earlier work; for Success of therapy: patients with mild to moderate disease symptoms; for Relief of symptoms: mild to moderate symptoms; for Relief of symptoms / Effectiveness in patients with severe symptoms: experimental drugs.

For the compound `C#C[C@]1(O)CC[C@H]2[C@@H]3CCC4=Cc5oncc5C[C@]4(C)[C@H]3CC[C@@]21C` [Danazol], the Therapeutic effect result in the experiment with irritable bowel syndrome (200 mg four times daily, P.O.) is “only minimal therapeutic effect”.

As to `CC(C)C[C@H](NC(=O)[C@@H](Cc1ccc2ccccc2c1)NC(=O)[C@H](Cc1ccc(O)cc1)NC(=O)[C@H](CO)NC(=O)[C@H](Cc1c[nH]c2ccccc12)NC(=O)[C@H](Cc1c[nH]cn1)NC(=O)[C@@H]1CCC(=O)N1)C(=O)N[C@@H](CCCNC(=N)N)C(=O)N1CCC[C@H]1C(=O)NCC(N)=O` [Nafarelin], in the experiment with irritable bowel syndrome (2.0 mg/day s.c.), the “Blood levels of FSH and LH” value was “effectively reduced their blood levels of FSH and LH”; the “Symptoms of irritable bowel disease” value is listed as “effectively reduced the symptoms of their irritable bowel disease”.

For `CC(C[N+](C)(C)C)OC(N)=O` (stereo not drawn) [bethanechol], the Success of therapy result in experiment [1] was “limited success”.

For `COc1cc(N)c(Cl)cc1C(=O)NC1CCN(CCCOc2ccc(F)cc2)CC1OC` (stereo not drawn) [cisapride], in experiment [1], the Relief of symptoms entry was “limited relief of mild to moderate symptoms” and the “Effectiveness in patients with severe symptoms” value is recorded as “not been effective”.

`O=c1[nH]c2ccccc2n1CCCN1CCC(n2c(=O)[nH]c3cc(Cl)ccc32)CC1` [domperidone]: in experiment [1], the Relief of symptoms result was “limited relief of mild to moderate symptoms” and the “Effectiveness in patients with severe symptoms” value is listed as “not been effective”.

`CCN(CC)CCNC(=O)c1cc(Cl)c(N)cc1OC` [metoclopramide]: the Success of therapy entry in experiment [1] is on record as “limited success”.
